Some test systems named below: CCRF-CEM leukemia; MDA-MB-231 breast; HCT-15 colon; 786-0 renal; MALME-3M melanoma; PC-3 prostate; TK-10 renal; HL-60(TB) leukemia; LOX IMVI melanoma; NCI-H522 lung; K-562 leukemia.
Common to all, as to assay: inhibition of tumour cell growth, NCI panel, 48 h

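Results reflect a 48-hour exposure of cells in 96-well plates to compound at five concentrations. At the GI50, growth is halved. TGI: total growth inhibition.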 *1 amine or outer side, *2 acyl side, *3 side chain or, on linkers, in order; H or OH if unused. Where a SMILES comes first, the peptide text is derived from it. Bridges are numbered along the chain shown (N, C = ends). Roman numbers before positions name the chains, in order. [ ]: non-standard residue; d: D form. The star is where a group is joined. Actinocin(9to1) = Cc1c2oc3c(C)ccc(C(=O)[*:1])c3nc-2c(C(=O)[*:2])c(N)c1=O; NMeV = CN[CH](C(=O)O)C(C)C; Cbz = O=C(OCc1ccccc1)*; OBn = c1ccc(CO*)cc1; Sar = CNCC(=O)O Where only a bound is given, the exact number is not on record here.

As to `O=C1C(Br)=CC2(C=C1Br)CCNC1=C2C(=O)c2cccnc2C1=O`, the TGI with CCRF-CEM leukemia stood at 25.5 µM; in the assay with MDA-MB-231 breast, 31.1 µM; in the assay with HCT-15 colon, 22.6 µM; in the assay with 786-0 renal it was 29.3 µM; with MALME-3M melanoma, 21.5 µM; in the assay on PC-3 prostate it was 39.7 µM. Moreover, the TGI turned out to be 35.9 µM with TK-10 renal; 15.8 µM in the assay with HL-60(TB) leukemia; 18.9 µM with LOX IMVI melanoma; 13.9 µM in the assay on NCI-H522 lung; 6.84 µM in the assay on K-562 leukemia.
Turning to `CCOC(=O)/C=C(\C(=O)OCC)n1ccc(N)nc1=O`, the TGI in the assay with CCRF-CEM leukemia is 60.5 µM; in the assay with MDA-MB-231 breast, over 100 µM; in the assay with HCT-15 colon, over 100 µM; with 786-0 renal, over 100 µM; in the assay on MALME-3M melanoma it was over 100 µM; with PC-3 prostate, over 100 µM. In addition, the TGI in the assay with TK-10 renal was over 100 µM; in the assay with HL-60(TB) leukemia, over 100 µM; in the assay with LOX IMVI melanoma it was over 100 µM; with NCI-H522 lung, 40.8 µM; in the assay on K-562 leukemia it was over 100 µM.
Consider `COc1cc(/C=C2\N=C(c3ccccc3)N(c3nc4c(OC)ccc(OC)c4s3)C2=O)cc(OC)c1OC`, for which the TGI in the assay with CCRF-CEM leukemia, in the assay with MDA-MB-231 breast, in the assay with HCT-15 colon, in the assay on 786-0 renal, in the assay with MALME-3M melanoma and with PC-3 prostate was over 100 µM in each case. The TGI in the assay on TK-10 renal, in the assay on HL-60(TB) leukemia, with LOX IMVI melanoma, with NCI-H522 lung and in the assay on K-562 leukemia was over 100 µM each time.
For `CC[C@H](C)[C@H]1NC(=O)[C@@H](NC(=O)[C@@H](CC(C)C)N(C)CC2CCCN2C(=O)C(C)=O)[C@@H](C)OC(=O)[C@H](Cc2ccc(OC)cc2)N(C)C(=O)C2CCCN2C(=O)[C@H](CC(C)C)NC(=O)[C@@H](C)C(=O)[C@H](C(C)C)OC(=O)C[C@@H]1O` (stereo not given in full), the TGI was determined as 0.00404 µM with CCRF-CEM leukemia; 0.0251 µM in the assay on MDA-MB-231 breast; 0.73 µM with HCT-15 colon; 0.0118 µM in the assay with 786-0 renal; 0.0474 µM with MALME-3M melanoma; 0.00983 µM with PC-3 prostate. In addition, the TGI was 0.0202 µM in the assay on TK-10 renal; 0.021 µM in the assay with HL-60(TB) leukemia; 0.00861 µM in the assay on LOX IMVI melanoma; 0.0523 µM in the assay with NCI-H522 lung; 0.0158 µM with K-562 leukemia.
With `COc1cc(CC2c3cc(OC)c(OC)cc3CCN2C)c(Oc2cc3c(cc2OC)-c2c(O)c(OC)cc4c2C(C3)N(C)CC4)cc1OC` (stereo not given), the TGI in the assay on CCRF-CEM leukemia was found to be 42.8 µM; in the assay on MDA-MB-231 breast it was 37.7 µM; with HCT-15 colon it was 33.1 µM; in the assay with 786-0 renal, 84.4 µM; in the assay on MALME-3M melanoma, 53.8 µM; in the assay on PC-3 prostate it was 94.6 µM. For the same compound, the TGI is 51.3 µM in the assay with TK-10 renal; 17.9 µM in the assay with HL-60(TB) leukemia; 67.9 µM in the assay with LOX IMVI melanoma; 39.3 µM in the assay on NCI-H522 lung; over 100 µM in the assay on K-562 leukemia.
In the case of `O=S1(=O)c2ccccc2C(=NO)c2ccccc21`, the TGI in the assay on CCRF-CEM leukemia, with MDA-MB-231 breast, in the assay with HCT-15 colon, in the assay on 786-0 renal, in the assay with PC-3 prostate and with TK-10 renal was over 100 µM in each case. Further, the TGI in the assay on HL-60(TB) leukemia was 36.2 µM; in the assay on LOX IMVI melanoma, over 100 µM; in the assay with NCI-H522 lung, over 100 µM; in the assay with K-562 leukemia, over 100 µM.
On to `CNC(=O)c1cc(NC(=O)N(CCC#N)CCN(C(=O)N[C@@H](Cc2ccccc2)C(=O)N[C@@H](CC(C)C)C(=O)NC)c2ccccc2)ccc1OC`, for which the TGI in the assay on CCRF-CEM leukemia was over 100 µM; in the assay on MDA-MB-231 breast, over 60.3 µM; with HCT-15 colon it was over 100 µM; with 786-0 renal, over 100 µM; with MALME-3M melanoma, 38.5 µM; in the assay on PC-3 prostate, over 100 µM. In addition, the TGI in the assay on TK-10 renal, in the assay with HL-60(TB) leukemia and in the assay on LOX IMVI melanoma was over 100 µM each time.
In the case of `CC(=O)OC(OC(C)=O)n1cc(C=O)c2ccccc21`, the TGI in the assay with CCRF-CEM leukemia, with MDA-MB-231 breast, in the assay on HCT-15 colon, in the assay with PC-3 prostate, with TK-10 renal and in the assay on HL-60(TB) leukemia was over 100 µM throughout. For the same compound, the TGI with LOX IMVI melanoma, in the assay with NCI-H522 lung and in the assay on K-562 leukemia was over 100 µM throughout.
With `COC(=O)C(Cc1ccc(O)cc1)NC(=O)C(CC(=O)OCc1ccccc1)NC(=O)OCc1ccccc1` (stereo not given) (Cbz-Asp(OBn)-Tyr-OMe; configuration not given here), the TGI in the assay with CCRF-CEM leukemia was over 100 µM; in the assay with MDA-MB-231 breast, 37.5 µM; with HCT-15 colon, 33.7 µM; in the assay with 786-0 renal, 32.1 µM; in the assay on MALME-3M melanoma it was over 100 µM; in the assay on PC-3 prostate it was 31.6 µM. In addition, the results for the TGI in the assay with TK-10 renal, with HL-60(TB) leukemia and with K-562 leukemia were 33.5 µM, 52.7 µM and over 100 µM, respectively.
For `O=c1[nH]c(=O)n(Cc2ccccc2CO)cc1Sc1ccccc1`, the TGI with CCRF-CEM leukemia was over 100 µM; in the assay on MDA-MB-231 breast, 33.8 µM; in the assay on HCT-15 colon, 53.5 µM; with 786-0 renal it was over 100 µM; in the assay with MALME-3M melanoma it was 41.5 µM; in the assay with PC-3 prostate, over 100 µM. The TGI was over 100 µM in the assay with TK-10 renal, over 100 µM in the assay with HL-60(TB) leukemia, 3.81 µM in the assay with NCI-H522 lung and over 100 µM with K-562 leukemia.
`COc1ccc2c(c1)N=C1CSC(c3ccccc3Cl)N1C2` (stereo not given): the TGI in the assay with MDA-MB-231 breast is over 100 µM; in the assay on HCT-15 colon, 87.8 µM; in the assay on 786-0 renal, 31.6 µM; with MALME-3M melanoma, 73.9 µM; in the assay on PC-3 prostate, 58.5 µM; with TK-10 renal, 41.8 µM. The TGI in the assay with HL-60(TB) leukemia was determined as 4.76 µM; in the assay with LOX IMVI melanoma it was 23 µM; in the assay on NCI-H522 lung, 51.4 µM; with K-562 leukemia, 75.7 µM.
Consider `COc1ccc(N=N/C(=N/NC(=O)c2ccccc2)c2ccc(N(CCC#N)CCC#N)cc2C)cc1`, for which the TGI in the assay on CCRF-CEM leukemia, with MDA-MB-231 breast, in the assay with HCT-15 colon, with 786-0 renal, with MALME-3M melanoma and in the assay on PC-3 prostate was over 100 µM throughout. In addition, the TGI in the assay with TK-10 renal was over 100 µM; with HL-60(TB) leukemia, over 100 µM; with NCI-H522 lung, 36.1 µM; in the assay on K-562 leukemia, over 100 µM.
In the case of `Cc1c2oc3c(C)ccc(C(=O)NC4C(=O)NC(C(C)O)C(=O)N5CCCC5C(=O)N(C)CC(=O)N(C)C(C(C)C)C(=O)OC4C)c3nc-2c(C(=O)NC2C(=O)NC(C(C)O)C(=O)N3CCCC3C(=O)N(C)CC(=O)N(C)C(C(C)C)C(=O)OC2C)c(N)c1=O` (stereo not given) (I: TTP[Sar][NMeV] / II: TTP[Sar][NMeV]; ester I:1-I:C, II:1-II:C; linker I:N-II:N via Actinocin(9to1); configuration not given here), the TGI in the assay with CCRF-CEM leukemia is 5 µM; in the assay with MDA-MB-231 breast, over 100 µM; in the assay with HCT-15 colon, over 100 µM; in the assay with PC-3 prostate, over 100 µM; in the assay on TK-10 renal it was 6.18 µM; in the assay on HL-60(TB) leukemia, 5.12 µM. Also, the TGI with LOX IMVI melanoma came out at 0.984 µM; with NCI-H522 lung it was 1.14 µM; in the assay on K-562 leukemia, 3.43 µM.
`COC(=O)/C=C/c1cc(O)c2c(c1)[C@H](C(=O)OC)[C@@H](c1ccc(O)c(O)c1)O2`: the TGI in the assay with CCRF-CEM leukemia was 5.18 µM; with MDA-MB-231 breast, over 100 µM; with HCT-15 colon, over 100 µM; in the assay with 786-0 renal, over 100 µM; in the assay on PC-3 prostate, over 100 µM; with TK-10 renal, over 100 µM. Also, the TGI in the assay on HL-60(TB) leukemia is 0.0801 µM; with LOX IMVI melanoma it was over 82.6 µM; with NCI-H522 lung, 0.838 µM. In addition, the figures for the GI50 in the assay with MDA-MB-231 breast and with HL-60(TB) leukemia were 0.0497 µM and 0.0293 µM, respectively.
On to `O=C1C=C(Br)c2c(Br)sc(Br)c21`, for which the TGI with MDA-MB-231 breast was 33.9 µM; with HCT-15 colon, 20.5 µM; in the assay with 786-0 renal, over 19.6 µM; with MALME-3M melanoma it was 35.2 µM; in the assay with PC-3 prostate it was 26.4 µM; in the assay on TK-10 renal it was 23.5 µM. The TGI with HL-60(TB) leukemia was 29.2 µM; with LOX IMVI melanoma, 5.77 µM; in the assay with NCI-H522 lung it was 3.99 µM; in the assay on K-562 leukemia, over 36.7 µM.
As to `COP(=O)(OC)C(Cc1c[nH]c2ccccc12)NC(=O)OCc1ccccc1` (stereo not given), the TGI is 29.2 µM with CCRF-CEM leukemia; over 100 µM in the assay on MDA-MB-231 breast; over 100 µM in the assay on HCT-15 colon; over 100 µM with PC-3 prostate; over 100 µM with TK-10 renal; over 100 µM in the assay on HL-60(TB) leukemia. Also, the TGI in the assay with LOX IMVI melanoma, with NCI-H522 lung and in the assay on K-562 leukemia was over 100 µM each time.
On to `O=C1/C(=C/c2ccccc2[N+](=O)[O-])N=C(c2ccccc2)N1C1Nc2cc3c(cc2S1)NC(N1C(=O)/C(=C/c2ccccc2[N+](=O)[O-])N=C1c1ccccc1)S3` (stereo not given), for which the TGI in the assay on MDA-MB-231 breast is over 100 µM; in the assay with HCT-15 colon, over 100 µM; with 786-0 renal, 79.6 µM; in the assay with PC-3 prostate, over 100 µM; in the assay on TK-10 renal, over 100 µM; in the assay on HL-60(TB) leukemia it was 96.2 µM. For the same compound, the TGI is over 100 µM in the assay with LOX IMVI melanoma, 77.9 µM in the assay on NCI-H522 lung and over 100 µM with K-562 leukemia.

Values taken from PubChem BioAssay (NCI).
